Measurements taken from patent publication US6465455B1, “Benzamide derivatives for the treatment of diseases mediated by cytokines” (AstraZeneca AB, priority 1998, dated 2002).

Structure (SMILES) | melting point
COc1ccc(C(=O)Nc2cc(NC(=O)c3cccc(N4CCOCC4)c3)ccc2Cl)cc1OC [Example 4, N-[2-chloro-5-(3-morpholinobenzamido)phenyl]-3,4-dimethoxybenzamide] | 147.9 to 148.3 °C
CC(=O)Oc1ccc(C(=O)Nc2ccc(Cl)c(NC(=O)c3ccc(C#N)cc3)c2)cc1 [Example 14, N-[5-(4-acetoxybenzamido)-2-chlorophenyl]-4-cyanobenzamide] | 195 to 196 °C
